Columns and labels:
[1] = molecular target: T1, CDK8/CycC (Homo sapiens, UniProt P49336); test: CDK8 inhibitory activity (TR-FRET, Kinase Tracer-236 displacement); type: binding; details: 1 μM of the test compound; for inhibition at 1 µM: read-out: Percent inhibition of CDK8 activity (%)
T1 construct: purchased Carna Biosciences
In short: (§1)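 Binding assay measuring displacement of Kinase Tracer-236 (60 nM in the added mix) by compound, using Eu-cryptate anti-GST antibody with CDK8/CycC (84 ng/mL) or CDC2L6/CycC (87 ng/mL) solutions. After 1 h at room temperature, TR-FRET read at 615 and 665 nm (excitation 320 nm).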

[2] = molecular target: T2, CDK19 (CDC2L6/CycC) (Homo sapiens, UniProt Q9BWU1); test: CDK19 inhibitory activity (TR-FRET, Kinase Tracer-236 displacement); type: binding; details: 1 μM of the test compound; for inhibition at 1 µM: read-out: Percent inhibition of CDK19 activity (%)
T2 construct: purchased Carna Biosciences
T2 sequence (Q9BWU1 whole entry): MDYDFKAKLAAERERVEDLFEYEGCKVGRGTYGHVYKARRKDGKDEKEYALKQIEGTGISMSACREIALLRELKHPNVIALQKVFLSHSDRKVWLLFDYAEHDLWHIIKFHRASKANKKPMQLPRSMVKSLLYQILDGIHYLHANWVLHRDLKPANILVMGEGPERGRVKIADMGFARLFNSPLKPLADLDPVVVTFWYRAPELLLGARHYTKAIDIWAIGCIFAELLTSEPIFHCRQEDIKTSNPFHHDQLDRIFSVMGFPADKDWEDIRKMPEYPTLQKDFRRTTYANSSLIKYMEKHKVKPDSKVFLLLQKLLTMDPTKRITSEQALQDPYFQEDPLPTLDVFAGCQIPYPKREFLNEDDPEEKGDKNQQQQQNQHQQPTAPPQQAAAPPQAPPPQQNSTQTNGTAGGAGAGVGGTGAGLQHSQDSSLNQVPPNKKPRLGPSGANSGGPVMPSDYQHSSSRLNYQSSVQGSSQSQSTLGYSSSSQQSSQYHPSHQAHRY
T2 sequence (P24863 whole entry partner): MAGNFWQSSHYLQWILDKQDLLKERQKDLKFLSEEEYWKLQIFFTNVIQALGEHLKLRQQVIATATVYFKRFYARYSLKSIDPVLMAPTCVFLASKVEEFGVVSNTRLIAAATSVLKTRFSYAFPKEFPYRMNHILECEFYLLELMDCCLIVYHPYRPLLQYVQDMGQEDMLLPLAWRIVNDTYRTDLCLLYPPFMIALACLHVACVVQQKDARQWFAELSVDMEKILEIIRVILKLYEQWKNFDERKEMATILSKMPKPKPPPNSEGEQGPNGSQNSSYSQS
In short: as §1

[3] = tested on: human multiple myeloma RPMI8226 cells; test: Inhibitory activity against human multiple myeloma RPMI8226 cell growth (CellTiter-Glo); type: cell-based; details: 1 μM of the test compound, cultured for 8 days; for inhibition at 1 µM: Homo sapiens, RPMI-8226, 192 h, read-out: Percent inhibition of RPMI8226 cell growth (%)
In short: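 RPMI8226 cells (300/well) cultured 1 day at 37 °C, 5% CO2, then given compound at 1 μM for 8 days. ATP luminescence (CellTiter-Glo) read; percent inhibition relative to 0.1% DMSO wells.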

T1 sequence (P49336 whole entry): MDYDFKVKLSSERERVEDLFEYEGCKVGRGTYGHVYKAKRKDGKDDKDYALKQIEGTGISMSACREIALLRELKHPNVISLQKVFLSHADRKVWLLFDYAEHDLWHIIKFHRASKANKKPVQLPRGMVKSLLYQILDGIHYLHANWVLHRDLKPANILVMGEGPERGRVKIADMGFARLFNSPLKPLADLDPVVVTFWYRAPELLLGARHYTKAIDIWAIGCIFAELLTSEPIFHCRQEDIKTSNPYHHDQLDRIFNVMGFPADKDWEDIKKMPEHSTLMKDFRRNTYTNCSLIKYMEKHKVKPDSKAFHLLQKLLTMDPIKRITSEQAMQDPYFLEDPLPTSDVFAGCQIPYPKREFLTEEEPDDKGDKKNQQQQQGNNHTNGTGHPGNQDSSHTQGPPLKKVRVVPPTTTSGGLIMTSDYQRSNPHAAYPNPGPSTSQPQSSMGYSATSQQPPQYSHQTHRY
T1 sequence (P24863 whole entry partner): as the sequence (P24863 whole entry partner) above

Row | inhibition at 1 µM [1] [%] | inhibition at 1 µM [2] [%] | Percent inhibition of CDK8 activity (%) ([1]; methanesulfonate, 1 µM) | Percent inhibition of CDK19 activity (%) ([2]; methanesulfonate, 1 µM) | Structure (SMILES) | inhibition at 1 µM [3] [%] | Percent inhibition of RPMI8226 cell growth (%) ([3]; methanesulfonate, 1 µM)
1 | 103 | 96 | – | – | COC1CN(Cc2ccc(NC(=O)/C=C/c3cncc(F)c3-c3cnn(C4CC4)c3)c(F)c2)C1 [Example 343, (2E)-3-(4-(1-Cyclopropyl-1H-pyrazol-4-yl)-5-fluoropyridin-3-yl)-N-(2-fluoro-4-((3-methoxyazetidin-1-yl)methyl)phenyl)acrylamide] | 63 | –
2 | 100 | 100 | – | – | Cn1cc(-c2c(F)cncc2/C=C/C(=O)Nc2ccc(CN3CCOCC3)cc2)cn1 [Example 238, (2E)-3-(5-fluoro-4-(1-methyl-1H-pyrazol-4-yl)pyridin-3-yl)-N-(4-(morpholin-4-ylmethyl)phenyl)acrylamide] | 67 | –
3 | 96 | 92 | – | – | Cn1cc(-c2ccncc2/C=C/C(=O)Nc2ccc3c(c2)CCCC3=O)cn1 [Example 191, (2E)-3-(4-(1-methyl-1H-pyrazol-4-yl)pyridin-3-yl)-N-(5-oxo-5,6,7,8-tetrahydronaphthalen-2-yl)acrylamide] | 56 | –
4 | 101 | 100 | – | – | O=C(/C=C/c1cnccc1-c1cccs1)Nc1ccc(CCc2nnco2)cc1 [Example 1, (2E)-N-(4-(2-(1,3,4-Oxadiazol-2-yl)ethyl)phenyl)-3-(4-(2-thienyl)pyridin-3-yl)acrylamide] | 59 | –
5 | 101 | 98 | – | – | O=C(/C=C/c1cnccc1-c1ccns1)Nc1ccc(CN2CCOCC2)cc1 [Example 196, (2E)-N-(4-(morpholin-4-ylmethyl)phenyl)-3-(4-(1,2-thiazol-5-yl)pyridin-3-yl)acrylamide] | 54 | –
6 | 98 | 99 | – | – | Cn1cc(-c2ccncc2/C=C/C(=O)Nc2ccc3c(ccn3C)c2)cn1 [Example 175, (2E)-N-(1-Methyl-1H-indol-5-yl)-3-(4-(1-methyl-1H-pyrazol-4-yl)pyridin-3-yl)acrylamide] | 55 | –
7 | 100 | 95 | – | – | CC1COCCN1Cc1ccc(NC(=O)/C=C/c2cnccc2-c2cnn(C)c2)cc1 (stereo not drawn) [Example 54, (2E)-N-(4-((3-methylmorpholin-4-yl)methyl)phenyl)-3-(4-(1-methyl-1H-pyrazol-4-yl)pyridin-3-yl)acrylamide] | 55 | –
8 | 99 | 101 | – | – | CC(C)(F)Cc1ccc(NC(=O)/C=C/c2cncc(F)c2-c2cnn(C3CC3)c2)cc1 [Example 348, (2E)-3-(4-(1-Cyclopropyl-1H-pyrazol-4-yl)-5-fluoropyridin-3-yl)-N-(4-(2-fluoro-2-methylpropyl)phenyl)acrylamide] | 62 | –
9 | 100 | 103 | – | – | CC(C)(O)Cc1ccc(NC(=O)/C=C/c2cnccc2-c2cnn(C3CC3)c2)cc1 [Example 143, (2E)-3-(4-(1-cyclopropyl-1H-pyrazol-4-yl)pyridin-3-yl)-N-(4-(2-hydroxy-2-methylpropyl)phenyl)acrylamide] | 61 | –
10 | 95 | 96 | – | – | Cn1cc(-c2ccncc2/C=C/C(=O)Nc2ccc(Oc3ccncc3)cc2)cn1 [Example 137, (2E)-3-(4-(1-methyl-1H-pyrazol-4-yl)pyridin-3-yl)-N-(4-(pyridin-4-yloxy)phenyl)acrylamide] | 54 | –
11 | 98 | 93 | – | – | Cn1cc(-c2ccncc2/C=C/C(=O)Nc2ccc3cc[nH]c3c2)cn1 [Example 155, (2E)-N-(1H-indol-6-yl)-3-(4-(1-methyl-1H-pyrazol-4-yl)pyridin-3-yl)acrylamide] | 54 | –
12 | 96 | 96 | – | – | O=C(/C=C/c1cnccc1-c1cnn(C2CCC2)c1)Nc1ccc(CN2CCOCC2)cc1 [Example 258, (2E)-3-(4-(1-cyclobutyl-1H-pyrazol-4-yl)pyridin-3-yl)-N-(4-(morpholin-4-ylmethyl)phenyl)acrylamide] | 54 | –
13 | 95 | 95 | – | – | Cc1ncc(-c2ccncc2/C=C/C(=O)Nc2ccc(CN3CCOCC3)cc2)s1 [Example 151, (2E)-3-(4-(2-methyl-1,3-thiazol-5-yl)pyridin-3-yl)-N-(4-(morpholin-4-ylmethyl)phenyl)acrylamide] | 54 | –
14 | 100 | 99 | – | – | Cn1cc(-c2ccncc2/C=C/C(=O)Nc2ccc(CN3CCOCC3)c(C#N)c2)cn1 [Example 150, (2E)-N-(3-Cyano-4-(morpholin-4-ylmethyl)phenyl)-3-(4-(1-methyl-1H-pyrazol-4-yl)pyridin-3-yl)acrylamide] | 54 | –
15 | 107 | 99 | – | – | O=C(/C=C/c1cnccc1-c1cnn(C2CC2)c1)Nc1ccc(CN2CC(F)C2)cc1 [Example 365, (2E)-3-(4-(1-Cyclopropyl-1H-pyrazol-4-yl)pyridin-3-yl)-N-(4-((3-fluoroazetidin-1-yl)methyl)phenyl)acrylamide] | 58 | –
16 | 98 | 99 | – | – | Cn1cc(-c2c(F)cncc2/C=C/C(=O)Nc2ccc(CN3CCOCC3)cc2F)cn1 [Example 260, (2E)-3-(5-Fluoro-4-(1-methyl-1H-pyrazol-4-yl)pyridin-3-yl)-N-(2-fluoro-4-(morpholin-4-ylmethyl)phenyl)acrylamide] | 53 | –
17 | 92 | 87 | – | – | Cn1cc(-c2ccncc2/C=C/C(=O)Nc2ccc3c(c2)CCC3=O)cn1 [Example 176, (2E)-3-(4-(1-methyl-1H-pyrazol-4-yl)pyridin-3-yl)-N-(1-oxo-2,3-dihydro-1H-inden-5-yl)acrylamide] | 54 | –
18 | 100 | 96 | – | – | Cn1cc(-c2ccncc2/C=C/C(=O)Nc2ccc(CN3CC4CC3CO4)cc2)cn1 (stereo not drawn) [Example 51, (2E)-3-(4-(1-methyl-1H-pyrazol-4-yl)pyridin-3-yl)-N-(4-(2-oxa-5-azabicyclo[2.2.1]hept-5-ylmethyl)phenyl)acrylamide] | 58 | –
19 | 99 | 96 | – | – | COc1ncc(-c2ccncc2/C=C/C(=O)Nc2ccc(CN3CCOCC3)cc2F)s1 [Example 250, (2E)-N-(2-Fluoro-4-(morpholin-4-ylmethyl)phenyl)-3-(4-(2-methoxy-1,3-thiazol-5-yl)pyridin-3-yl)acrylamide] | 63 | –
20 | 99 | 99 | – | – | Cn1cc(-c2ccncc2/C=C/C(=O)Nc2ccc(CN3CCOCC3)c(Cl)c2)cn1 [Example 42, (2E)-N-(3-Chloro-4-(morpholin-4-ylmethyl)phenyl)-3-(4-(1-methyl-1H-pyrazol-4-yl)pyridin-3-yl)acrylamide] | 53 | –
21 | 97 | 93 | – | – | Cn1cc2cc(-c3ccncc3/C=C/C(=O)Nc3ccc(CN4CCOCC4)cc3)ccc2n1 [Example 261, (2E)-3-(4-(2-methyl-2H-indazol-5-yl)pyridin-3-yl)-N-(4-(morpholin-4-ylmethyl)phenyl)acrylamide] | 52 | –
22 | 96 | 98 | – | – | CC(c1ccc(NC(=O)/C=C/c2cnccc2-c2cnn(C)c2)cc1)N1CCOCC1 (stereo not drawn) [Example 43, (2E)-3-(4-(1-methyl-1H-pyrazol-4-yl)pyridin-3-yl)-N-(4-(1-(morpholin-4-yl)ethyl)phenyl)acrylamide] | 57 | –
23 | 103 | 98 | – | – | O=C(/C=C/c1cncc(F)c1-c1cnn(C2CC2)c1)Nc1ccc2c(c1)OCCO2 [Example 331, (2E)-3-(4-(1-cyclopropyl-1H-pyrazol-4-yl)-5-fluoropyridin-3-yl)-N-(2,3-dihydro-1,4-benzodioxin-6-yl)acrylamide] | 65 | –
24 | 100 | 97 | – | – | Cc1ccc(NC(=O)/C=C/c2cnccc2-c2cn[nH]c2)c(F)c1 [Example 296, (2E)-N-(2-fluoro-4-methylphenyl)-3-(4-(1H-pyrazol-4-yl)pyridin-3-yl)acrylamide] | 59 | –
25 | 98 | 98 | – | – | CN(C)CCc1ccc(NC(=O)/C=C/c2cnccc2-c2cnn(C)c2)cc1 [Example 226, (2E)-N-(4-(2-(dimethylamino)ethyl)phenyl)-3-(4-(1-methyl-1H-pyrazol-4-yl)pyridin-3-yl)acrylamide] | 66 | –
26 | – | – | 102 | 101 | O=C(/C=C/c1cnccc1-c1cnn(C2CC2)c1)Nc1ccc(CN2CC(F)(F)C2)cc1 [Example 375, (2E)-3-(4-(1-Cyclopropyl-1H-pyrazol-4-yl)pyridin-3-yl)-N-(4-((3,3-difluoroazetidin-1-yl)methyl)phenyl)acrylamide methanesulfonate] | – | 70
27 | 95 | 93 | – | – | CC(=O)N(C)Cc1cc(NC(=O)/C=C/c2cnccc2-c2cnn(C)c2)ccc1C [Example 246, (2E)-N-(3-((acetyl(methyl)amino)methyl)-4-methylphenyl)-3-(4-(1-methyl-1H-pyrazol-4-yl)pyridin-3-yl)acrylamide] | 49 | –

— patent US9957251B2 (Takeda Pharmaceutical Company Limited, priority 2014, dated 2018)
